Literature values, collected in publication PMC4984525 (Cancer, 2011).

System: patients with resistant ovarian cancer
Settings: preliminary results of a Phase 2 trial; cited from earlier work

For Cc1ccc(C(=O)N(CCCN)[C@@H](c2nc3cc(Cl)ccc3c(=O)n2Cc2ccccc2)C(C)C)cc1 [ispinesib], the clinical activity is listed as “has clinical activity”.
